According to US8394786B2, “Quinazoline derivatives” (Janssen Pharmaceutica N.V., priority 2003, dated 2013):

What was measured:
SKOV3 cells = assay: Serum starved proliferation assay on the ovarian carcinoma SKOV3 cells (C3); type: cell-based; details: EGF stimulated (100 ng/ml, 72 hours, serum free) or 72 hours with compounds, MTT cell viability assay; for IC50: Homo sapiens, SK-OV-3, 72 h, read-out: SKOV3 cell (C3): pIC50 (converted)
Summary of the method: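 SKOV3 cells grown 24 h in 10% FCS, then treated with compound under serum-free conditions (37 °C, 5% CO2) and stimulated 72 h with EGF at 100 ng/ml final; read-out by MTT viability. Alternative format: compound for 72 h after the same 24 h FCS step, also by MTT.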

A431 cells = assay: Proliferation assay on the squamous carcinoma cell line A431 cells (C5); type: cell-based; details: Homo sapiens, A-431; 72 hours with compounds; MTT cell viability assay; read-out: A431 cell (C5): pIC50 (converted)
Experimental: The squamous carcinoma cell line (A431) was used in a cell proliferation assay, to assess the inhibitory effect of the compounds in whole cells.
In a first step the A431 cells were incubated for 24 hours in the presence of 10% FCS serum. In the second step the cells were incubated for 72 hours with the compounds to be tested at a final concentration of 100 ng/ml. The effect of the compounds on the cell proliferation was finally assessed in a standard MTT cell viability assay.

EGFR = EGFR (Homo sapiens, UniProt P00533); assay: In vitro inhibition of EGFR, Flash Plate or glass-fiber filter technology (C2); type: biochemical; design: 0.5 μg EGFR-kinase domain/well; details: EGFR-kinase domain, 5.0 μM unlabeled ATP, read-out: Kinase activity.(C2): pIC50 (converted)
Sequence of EGFR (P00533 712-979 limits assumed): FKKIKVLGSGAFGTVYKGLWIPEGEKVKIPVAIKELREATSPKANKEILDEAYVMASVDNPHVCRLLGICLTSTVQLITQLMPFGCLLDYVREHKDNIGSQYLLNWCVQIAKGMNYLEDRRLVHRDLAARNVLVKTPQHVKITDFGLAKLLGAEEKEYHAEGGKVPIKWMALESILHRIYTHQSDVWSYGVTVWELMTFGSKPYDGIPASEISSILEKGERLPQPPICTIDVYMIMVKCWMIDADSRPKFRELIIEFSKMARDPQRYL
Summary of the method: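 EGFR kinase domain (0.5 μg/well) phosphorylated poly(GT) with 5.0 μM ATP plus AT^33P, dose response 1·10^−6 to 1·10^−10 M. Flash Plate: biotin-poly(GT), Tris pH 8.0, 30° C, 60 min, scintillation counting. Filter: Tris pH 7.5 with MnCl2, 25° C, 10 min, 33P counted on glass-fiber filter by phosphorimaging.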

SMILES | IC50 (SKOV3 cells) [nM] | IC50 (A431 cells) [nM] | IC50 (EGFR) [nM] | melting point [°C] | SKOV3 cell (C3): pIC50 (SKOV3 cells)
COc1cc2ncnc3c2cc1OCCCCCN(C(=O)OC(C)(C)C)Cc1ccc(Br)cc1N3 [Compound 19, 4,6-ethanediylidenepyrimido[4,5-b][6,1,12]benzoxadiazacyclo-pentadecine-13(8H)-carboxylic acid, 17-bromo-9,10,11,12,14,19-hexahydro-20-methoxy-, 1,1-dimethylethyl ester] | 5010 | > 3160 | 63.1 |  | 
COc1cc2ncnc3c2cc1OCCCCCNCc1ccc(Br)cc1N3 [Compound 20, 4,6-ethanediylidenepyrimido[4,5-b][6,1,12]benzoxadiazacyclo-pentadecine, 17-bromo-8,9,10,11,12,13,14,19-octahydro-20-methoxy-] | 229 | 1260 | 25.1 |  | 
COc1cc2ncnc3c2cc1OCCCCOCCc1ccc(Cl)cc1N3 [Compound 23, 4,6-ethanediylidene-13H-pyrimido[4,5-b][6,11,1]benzodioxaazacyclo-pentadecine, 17-chloro-8,9,10,11,14,19-hexahydro-20-methoxy-] | 60.3 | 501 | 10 |  | 
COc1cc2ncnc3c2cc1OCCCCCCCCOc1cccc(c1)N3 [Compound 25, 22H-4,6-ethanediylidene-21,17-methenopyrimido[5,4-d][1,12,6]dioxaazacycloeicosine, 8,9,10,11,12,13,14,15-octahydro-24-methoxy-] | > 10000 | > 3160 | 631 |  | 
COc1cc2ncnc3c2cc1OCCCNC(=O)CCc1ccc(Cl)cc1N3 [Compound 26, 4,6-ethenopyrimido[4,5-b][6,1,10]benzoxadiazacyclopentadecin-12(13H)-one, 17-chloro-8,9,10,11,14,19-hexahydro-20-methoxy-] | 120 | 2000 | 2.51 |  | 
COCCOc1cc2ncnc3c2cc1OCCCCCCOc1ccc(Br)cc1N3 [Compound 28, 4,6-ethanediylidene-19H-pyrimido[4,5-b][6,13,1]benzodioxaazacyclopentadecine, 17-bromo-8,9,10,11,12,13-hexahydro-20-(2-methoxyethoxy)-] | 1450 | 1580 | 25.1 |  | 
COc1cc2ncnc3c2cc1OCCCCCN(C(=O)OC(C)(C)C)Cc1cc(F)c(Cl)cc1N3 [Compound 29, 4,6-ethanediylidenepyrimido[4,5-b][6,1,12]benzoxadiazacyclopentadecine-13(8H)-carboxylic acid, 17-chloro-16-fluoro-9,10,11,12,14,19-hexahydro-20-methoxy-, 1,1-dimethylethyl ester] | > 10000 | > 3160 | 794 |  | 
COc1cc2ncnc3c2cc1OCCCCCNCc1cc(F)c(Cl)cc1N3 [Compound 30, 4,6-ethanediylidenepyrimido[4,5-b][6,1,12]benzoxadiazacyclopentadecine, 17-chloro-16-fluoro-8,9,10,11,12,13,14,19-octahydro-20-methoxy-] | 1020 | > 1000 | 31.6 |  | 
COc1cc2ncnc3c2cc1OCCCNC(=O)CN(C)Cc1ccc(Cl)cc1N3 [Compound 74, 4,6-ethanediylidene-12H-pyrimido[4,5-b][6,1,10,13]benzoxatriazacyclohexadecin-12-one, 18-chloro-8,9,10,11,13,14,15,20-octahydro-21-methoxy-14-methyl-] | 1000 |  | 25.1 | 240 to 240.3 | 
COc1cc2ncnc3c2cc1OCCNC(=O)CCNCc1ccc(Cl)cc1N3 [Compound 75, 4,6-ethanediylidene-8H-pyrimido[4,5-b][6,1,9,13]benzoxatriazacyclohexadecin-11(12H)-one, 18-chloro-9,10,13,14,15,20-hexahydro-21-methoxy-] | 6310 |  | 63.1 | 254.4 to 256.5 | 
COc1cc2ncnc3c2cc1OCCCNC(=O)C1CCC(=O)N1Cc1ccc(Cl)cc1N3 (stereo not drawn) [Compound 76, 4,6-etheno-8H-pyrimido[4,5-b]pyrrolo[2,1-l][6,1,10,13]benzoxatriazacyclohexadecine-12,15(14H)-dione, 20-chloro-9,10,11,12a,13,17,22-heptahydro-23-methoxy-] | 200 |  | 25.1 | 350.5 to 352.5 | 
COc1cc2ncnc3c2cc1OCCNC(=O)C1CCCN1Cc1cc(F)c(Cl)cc1N3 (stereo not drawn) [Compound 78, 4,6-ethanediylidenepyrimido[4,5-b]pyrrolo[2,1-k][6,1,9,12]benzoxatriazacyclopentadecin-11(8H)-one, 19-chloro-18-fluoro-9,10,11a,12,13,14,16,21-octahydro-22-methoxy-] | 316 |  | 31.6 | 261.4 to 264 | 
COc1cc2ncnc3c2cc1OCCNC(=O)CN(C)Cc1cc(F)c(Cl)cc1N3 [Compound 79, 4,6-ethanediylidenepyrimido[4,5-b][6,1,9,12]benzoxatriazacyclopentadecin-11(8H)-one, 17-chloro-16-fluoro-9,10,12,13,14,19-hexahydro-20-methoxy-13-methyl-] | 10000 |  | 631 | 306.3 to 307.4 | 
COc1cc2ncnc3c2cc1OCCCNC(=O)CN(C)Cc1cc(F)c(Cl)cc1N3 [Compound 80, 4,6-ethanediylidene-12H-pyrimido[4,5-b][6,1,10,13]benzoxatriazacyclohexadecin-12-one, 18-chloro-17-fluoro-8,9,10,11,13,14,15,20-octahydro-21-methoxy-14-methyl-] | 63.1 |  | 20 | 260.4 to 261.1 | 
COc1cc2ncnc3c2cc1OCCNC(=O)CNCc1cc(F)c(Cl)cc1N3 [Compound 81, 4,6-ethanediylidenepyrimido[4,5-b][6,1,9,12]benzoxatriazacyclopentadecin-11(8H)-one, 17-chloro-16-fluoro-9,10,12,13,14,19-hexahydro-20-methoxy-] | 251 |  | 251 | 304.2 to 304.4 | 
COc1cc2ncnc3c2cc1OCCCNC(=O)CNCc1cc(F)c(Cl)cc1N3 [Compound 82, 4,6-ethanediylidene-12H-pyrimido[4,5-b][6,1,10,13]benzoxatriazacyclohexadecin-12-one, 18-chloro-17-fluoro-8,9,10,11,13,14,15,20-octahydro-21-methoxy-] | 79.4 |  | 20 | 311 to 311.9 | 
COc1cc2ncnc3c2cc1OCCNC(=O)C1CCCN1Cc1ccc(Cl)cc1N3 (stereo not drawn) [Compound 83, 4,6-ethanediylidenepyrimido[4,5-b]pyrrolo[2,1-k][6,1,9,12]benzoxatriazacyclopentadecin-11(8H)-one, 19-chloro-9,10,11a,12,13,14,16,21-octahydro-22-methoxy-] |  |  | 501 | 262 to 262.8 | 6.1
COc1cc2ncnc3c2cc1OCCCNC(=O)CNCc1ccc(Cl)cc1N3 [Compound 99, 4,6-ethanediylidene-12H-pyrimido[4,5-b][6,1,10,13]benzoxatriazacyclohexadecin-12-one, 18-chloro-8,9,10,11,13,14,15,20-octahydro-21-methoxy-] | 200 |  | 25.1 | 304.6 to 304.8 | 
COc1cc2ncnc3c2cc1OCCCCNC(=O)C1CCCN1Cc1ccc(Cl)cc1N3 (stereo not drawn) [Compound 100, 4,6-ethanediylidenepyrimido[4,5-b]pyrrolo[2,1-m][6,1,11,14]benzoxatriazacycloheptadecin-13(8H)-one, 21-chloro-9,10,11,12,13a, 14,15,16,18,23-decahydro-24-methoxy-] | 126 |  | 7.94 | 226.3 to 227.7 | 
COc1cc2ncnc3c2cc1OCCCNCCN(C)Cc1ccc(Cl)cc1N3 [Compound 114, 4,6-ethanediylidene-8H-pyrimido[4,5-b][6,1,10,13]benzoxatriazacyclohexadecine, 18-chloro-9,10,11,12,13,14,15,20-octahydro-21-methoxy-14-methyl-] | 39.8 |  | 10 | 202.8 to 203.6 | 
COc1cc2ncnc3c2cc1OCCCCNCCN(C)Cc1ccc(Cl)cc1N3 [Compound 115, 4,6-ethanediylidenepyrimido[4,5-b][6,1,11,14]benzoxatriazacycloheptadecine, 19-chloro-8,9,10,11,12,13,14,15,16,21-decahydro-22-methoxy-15-methyl-] | 126 |  | 6.31 | 196.9 to 197.8 | 
COc1cc2ncnc3c2cc1OCCNCCN(C)Cc1ccc(Cl)cc1N3 [Compound 116, 4,6-ethanediylidenepyrimido[4,5-b][6,1,9,12]benzoxatriazacyclopentadecine, 17-chloro-8,9,10,11,12,13,14,19-octahydro-20-methoxy-13-methyl-] | 63.1 |  | 200 | 195.8 to 196.6 | 
